{"source": "paper PMC5642494", "about": "(Oncotarget, 2017)", "key": {"H3K9me3": {"tested_on": "H3K9me3", "assay": "Hypermethylation of histone H3 at lysine 9 (H3K9me3), MCF7", "assay_type": "cell-based", "details": "Homo sapiens, 2 DT, n = 2, read-out: EC50 H3K9me3 levels", "experimental": "Relative IC50/EC50 values were determined by curve fitting to a four parameter logistic equation: Y = bottom + ((top-bottom)/ (1+exp(HillSlope*(X – LnIC50)), where X is the natural log of dose/concentration, Y is response, decreasing as X increases, top and bottom are plateaus in the same units as Y, lnIC50 is the natural log of potency, in the same log units as X, and HillSlope measures the steepness of the curve. Data were plotted using GraphPad Prism.\nBioResearch) where indicated; the dates of acquisition and in an Acumen Explorer Ex3 (TTP Labtech), raw data testing are listed in parentheses: ZR-75-1; T-47D; MDA- were analyzed with Cellista software and then further MB-468; HCC70; BT-549; BT-20; MDA-MB-231; MDA- normalized in Excel against the values obtained for cells MB-175-VII, HCC-1937; MDA-MB-415. treated with 2 µM BEZ235, or vehicle (0.2% v/v DMSO); data were graphed using GraphPad Prism®. Images were SA-β-galactosidase immunocytochemical labeling taken by fluorescent microscopy using a Leica DMiL. […]\nSA-β-gal Cell samples were lysed after treatment with expression was determined using the Senescence Cells 100 µL lysis buffer and transferred to a 96-well plate. […]\n(BSA) (Invitrogen #15260-037) for 1 hour at 25°C. EdU Samples were analyzed by LC─MS/MS under the detection was performed using the Click-iT High Content conditions described below. […]"}, "pRb at S807/811": {"tested_on": "pRb at S807/811", "assay": "Immunoblotting of phospho-Rb in ZR-75-1, T-47D and MCF7 cells", "assay_type": "cell-based, human", "details": "MCF7, T-47D, ZR-75-1 cells; 24 hours; 0.027 µM to 20 µM", "experimental": "(§1) Protein lysates were prepared from the cells and analyzed for the expression of various biomarkers by immunoblotting. The biomarkers included phosphor-Rb at serines 807/811,phosphorylation of serine 2 on the C-terminal repeat domain on RNA polymerase II (pCTD) and MCL1. Images of Western blots were cropped to denote the relevant band(s) for clarity. […] Ki-67 positive events were obtained by gating versus background signal."}, "pCTD_s2 or MCL1": {"tested_on": "pCTD_s2 or MCL1", "assay": "Immunoblotting of CDK9-dependent biomarkers in ZR-75-1, T-47D and MCF7 cells", "assay_type": "cell-based, human", "details": "MCF7, T-47D, ZR-75-1 cells; 24 hours; highest concentration (20 µM)", "experimental": "as §1"}, "MDA-MB-361 cells": {"tested_on": "MDA-MB-361 cells", "assay": "Annexin V/PI flow cytometry, MDA-MB-361", "assay_type": "cell-based, human", "details": "3 DT (untreated 45.7%)", "experimental": "Annexin V/PI staining was performed following the vendor’s specifications in MCF7 and MDA-MB-361 cells. […] Raw data were analyzed with FlowJo X software. Events were gated for debris exclusion and singlets selection. A minimum of 10,000 cells were analyzed per sample."}}}
{"smiles": "CCN1CCN(Cc2ccc(Nc3ncc(F)c(-c4cc(F)c5nc(C)n(C(C)C)c5c4)n3)nc2)CC1", "note": "[abemaciclib, Abemaciclib]", "values": [{"measurement": "EC50", "setting": "H3K9me3", "value": "0.34 ± 0.016", "unit": "µM"}, {"measurement": "levels of phosphorylated Rb (pRb) at S807/811", "setting": "pRb at S807/811", "value": "decrease in levels of phosphorylated Rb"}, {"measurement": "levels of pCTD_s2 or MCL1", "setting": "pCTD_s2 or MCL1", "value": "no changes were observed"}, {"measurement": "cells positive for annexin V", "setting": "MDA-MB-361 cells; 0.5 µM", "value": 84.6, "unit": "%"}, {"measurement": "cells positive for annexin V", "setting": "MDA-MB-361 cells; 2 µM", "value": 88.8, "unit": "%"}]}
